Experimental data as given in patent publication US6875761B2 (Eisai Co., Ltd., priority 1997, dated 2005).
Structures can show the parent of a compound that is named as a salt.

melting point | SMILES
165 °C | CCN1CCN(c2nc(-c3ccc(N4CCC(OC)CC4)cc3)cc3ccccc23)CC1 (as salt: hydrochloride) [Example 98, 1-(4-Ethylpiperazin-1-yl)-3-[4-(4-methoxypiperidin-1-yl)phenyl]isoquinoline Trihydrochloride]
112 to 114 °C | CCCC(O)c1ccc(-c2cc3ccsc3c(N3CCN(CC)CC3)n2)cc1 (stereo not shown) (as salt: hydrochloride) [Example 446, 7-(4-ethylpiperazin-1-yl)-5-[4-(1-hydroxybutyl)phenyl]thieno[2,3-c]pyridine dihydrochloride]
208 to 210 °C | CCN1CCN(c2nc(-c3ccc(N4CCC(O)CC4)nc3)cc3ccsc23)CC1 (as salt: hydrochloride) [Example 265, 5-[2-(4-hydroxypiperidin-1-yl)pyridin-5-yl]-7-(4-ethylpiperazin-1-yl)thieno[2,3-c]pyridine Hydrochloride]
172 to 173 °C (dec.) | CCN1CCN(c2nc(-c3cc(OC)ccn3)cc3ccccc23)CC1 (as salt: hydrochloride) [Example 335, 1-(4-ethylpiperazin-1-yl)-3-(4-methoxypyridin-2-yl)isoquinoline dihydrochloride]
110 to 112 °C | CCN1CCN(c2nc(-c3cc(F)c(OCCOC)c(F)c3)cc3ccccc23)CC1 (as salt: hydrochloride) [Example 368, 1-(4-ethylpiperazin-1-yl)-3-(3,5-difluoro-4-methoxyethoxyphenyl)isoquinoline dihydrochloride]
173 to 175 °C | CCN1CCN(c2nc(-c3ccc(O)cc3)cc3sccc23)CC1 (as salt: hydrochloride)
223 to 227 °C | CCN1CCN(c2nc(-c3ccc4c(c3)OCO4)cc3ccccc23)CC1 (as salt: hydrochloride) [Example 46, 3-(3,4-Methylenedioxyphenyl)-1-(4-Ethylpiperazin-1-Yl)Isoquinoline Hydrochloride]
128 to 129 °C | CCN1CCN(c2nc(-c3ccc(OCCO)c(OC)c3)cc3ccccc23)CC1 (as salt: hydrochloride) [Example 340, 1-(4-ethylpiperazin-1-yl)-3-[4-(2-hydroxyethoxy)-3-methoxyphenyl]isoquinoline dihydrochloride]
197 to 198 °C (dec.) | CCOc1ccc(-c2cc3ccccc3c(N3CCN(CC)CC3)n2)cc1.Cl.Cl
145 to 147 °C | CCN1CCN(c2nc(-c3ccc(CO)cc3)cc3ccccc23)CC1 (as salt: hydrochloride) [Example 17, 1-(4-ethylpiperazin-1-yl)-3-(4-hydroxymethylphenyl)isoquinoline hydrochloride]
181.5 to 183 °C | CCN1CCN(c2nc(Sc3ccccc3)cc3ccccc23)CC1 (as salt: oxalate) [Example 374, 1-(4-ethylpiperazin-1-yl)-3-(phenylthio)isoquinoline oxalate]
138 to 140 °C (dec.) | CCN1CCN(c2nc(-c3ccc4c(c3)CC(C)(CO)O4)cc3ccsc23)CC1 (stereo not shown) (as salt: hydrochloride) [Example 456, dihydrochloride]
157 to 160 °C | CCN1CCN(c2nc(-c3ccc(OC)cc3)cc3cnccc23)CC1 (as salt: hydrochloride)

SMILES | melting point
CCN1CCN(c2nc(-c3ccc4c(c3)CC(CO)C4)cc3ccccc23)CC1 (stereo not shown) (as salt: hydrochloride) [Example 393, 1-(4-Ethylpiperazin-1-yl)-3-(2-Hydroxymethylindan-5-yl)Isoquinoline Dihydrochloride] | 136.5 to 138 °C
CCN1CCN(c2nc(NC(=O)c3ccccc3)cc3ccccc23)CC1 (as salt: hydrochloride) [Example 421, 3-benzamide-1-(4-ethylpiperazin-1-yl)isoquinoline] | 160 to 162 °C
CCCN(C)C(=O)c1ccc(-c2cc3ccccc3c(N3CCN(CC)CC3)n2)cc1 (as salt: oxalate) [Example 381] | 131 to 132 °C
